Assays:
[1] = tested on: zebrafish embryos and larvae; assay: Morphological evaluation of zebrafish embryos/larvae exposed from 5¼ to 120 hpf; conditions: in vivo
Experimental: Each experiment was performed in two biological replicates (n = 2, 20 embryos/replicate) and consisted of a medium control group (EMS), solvent control group(s) (EMS + 0.5% DMSO and/or EMS + 1% DMSO) and four dose groups. […] Embryos were reared until they reached the desired developmental stage, under the same environmental conditions as the adults (28.5 °C ± 0.3 °C with a 14/10 h light/dark cycle) in the incubator (TIN-IN35, Phoenix instrument, Garbsen, Germany).
For the metabolites, E-CBZ (≥98% purity, CAS number: 36507-30-9, Supelco, Merck, Darmstadt, Germany) and HPPH (98% purity, CAS number: 2784-27-2, Sigma-Aldrich®, Merck, Darmstadt, Germany), we only selected one high concentration, 250 µM (see Supplementary Table S1). […] A higher percentage of DMSO was used for E-CBZ for the optimum dissolution of E-CBZ in EMS. Immediately after the selection (see Section 4.1), twenty embryos were randomly distributed in each control and test group. Embryos were exposed at the latest at 5 hpf in a final volume of 300 µL medium at a density of a fish per well.
For each biological replicate (n = 2), zebrafish embryos were morphologically investigated at 5¼, 10, 24, 48, 72, 96 and 120 hpf (Figure 9) using an Olympus CKX41 microscope with an Olympus U-TV0.5XC-3 lighting and an Olympys 4x/0.16 Uplan APO microscope objective (Shinjuku, Tokyo, Japon) to follow the developmental stages described by Kimmel et al.. The 5¼- and 10-hpf time points served as control steps to identify unfertilized or coagulated eggs that were included unwittingly to the experiment and referenced as coagulated in the 24-hpf morphological sheet (see Supplementary Figure S3). A series of morphological parameters were explored, adapted from Nagel et al., depending on the different time points of interest and described previously by our group (see Supplementary Figure S3). All parameters were scored 0 if normal and 1 if malformed. This binary scale was used to facilitate the scoring and no gradation of the severity of the endpoints was evaluated in this study.

zebrafish embryos/larvae = assay: Quantification of parent compounds and metabolites in whole zebrafish embryos/larvae homogenate extracts; conditions: for Uptake by embryos and larvae (quantified in homogenate extracts): CBZ, PHE 31.25, 85, 250 µM, E-CBZ, HPPH 250 µM
Experimental: In three biological replicates (n = 3; 20 embryos/replicate) and at the two desired developmental stages (24 and 120 hpf), embryos/larvae of each test and control group were pooled and then rinsed three times with cold EMS (4 °C) on a mesh (Cell strainer […] Nylon, Steril Falcon®, Durham, NC, USA). Embryos collected at 24 hpf were not dechorionated, as the focus of this study was on the potential formation of the mammalian active metabolites. Moreover, it was argued that the chorion was more permeable than previously believed and that dechorionation could increase background malformations during gross morphology investigation. Embryos/larvae were then transferred and kept for five min in cryotubes (Cryo.S™, Greiner Bio-One, Frickenhausen, Germany) filled with 500 µL of cold embryo medium (4 °C), before being snap-frozen in liquid nitrogen and kept, for later use, at −80 °C (Figure 9).
The extraction preparation was based on Brox et al. for two developmental stages, 24 and 120 hpf, and performed in triplicate for each test group (n = 3, 20 embryos/replicate) (Figure 9). On the day of the extraction procedure, frozen samples (see Section 4.2.1) were thawed on ice and EMS was removed. A volume of 500 µL of acetonitrile (ACN) (purity ≥99.9%, Merck, Darmstadt, Germany) containing the internal standard lamotrigine, LAMO, (≥98% purity, CAS number: 84057-84-1, Sigma-Aldrich, Merck, Darmstadt, Germany) was then added to each tube to reach a final concentration of 0.39 µM, after dilution in HPLC-grade water. Samples were vortexed (VM3, CAT, Germany) for 5 min at a 2000 rotation/min speed, before being placed on ice and ultrasonicated with an Ultrasonic Processor VCX 130 (Sonics, Newtown, CT, USA) fifteen times for 30 s at an 80% amplitude with pause intervals of 30 s. Supernatants of the samples were then centrifuged (Centrifuge 5424 R, Eppendorf, Hamburg, Germany) twice at 4 °C for 15 min at 15,000× g, snap-frozen and kept for later use at −80 °C, whereas the pellets were discarded.
First, both sample types were processed to reach a final percentage of 30% ACN and a concentration of 0.39 µM of the IS, LAMO. […] Calibration curves and quality controls were prepared in their corresponding reaction mixtures to minimize matrix or extraction process effects. The analytical investigations were performed on an Acquity Ultra Performance Liquid Chromatography (UPLC) with sample manager, binary solvent manager, diode array detector and a triple-quadrupole detector (ACQUITY UPLC-triple quadrupole detector, Waters, Milford, CT, USA) equipped with the Masslynx software (version 4.1). […] Separation was accomplished in 6 min, using a flow rate of 0.5 mL/min. The solvent gradient program was set as follows: 85% A/15% B (0–0.5 min); 85–0% A/15–100% B (0.5–3.3 min); 0% A/100% B (3.3–4.4 min); 0–85% A/100–15% B (4.4–4.5 min); 85% A/15% B (4.5–6 min). The column was set at 40 °C and the injection volume was 10 μL. For the mass spectrometric conditions, the following parameters were used in positive ionization mode: capillarity voltage 3.5 kV, extractor voltage 3 V, cone voltage 35 V, Rf lens 0.1 V. The source temperature was set at 120 °C and the desolation temperature at 450 °C. The desolvation gas flow was fixed at 1000 L/h and cone gas flow at 50 L/h. […] The limit of quantification, linearity, matrix effects and specificity of the method developed for each compound were validated based on the European Medicines Agency (EMA) guidelines for bioanalytical method validation and the study from Kislyuk et al..
For the quantification of the metabolites E-CBZ and HPPH, the samples processed were the microsomal incubation reactions (see Section 4.3.2), the zebrafish culture and stock medium (4.2.1) and the zebrafish embryos/larvae extracts (see Section 4.2.3). Samples from the different experiments were also prepared, as for the parent compounds, to reach a final percentage of 30% ACN and a concentration of 0.39 µM of the IS, LAMO.

[2] = zebrafish (Danio rerio), 120 hpf, 85 µM
[3] = zebrafish (Danio rerio), 120 hpf, 250 µM
[4] = zebrafish (Danio rerio), 120 hpf, 31.25 µM

SMILES: NC(=O)N1c2ccccc2C=Cc2ccccc21 [CBZ, carbamazepine]
- Teratogenicity in zebrafish (conclusion from morphological and analytical assessment) [1]: teratogens
- Coagulation [1, 2]: 2/20
- Deviation Tail Curve [1, 2]: 1/18
- Malformation Head Deviation Eye [1, 2]: 1/18
- Malformation Head Deviation Mouth [1, 2]: 2/18
- Malformation Head Deviation Shape Head [1, 2]: 3/18
- Deviation Tail Curve [1, 3]: 2/20
- Malformation Head Deviation Mouth [1, 3]: 3/20
- Oedema Yolk [1, 3]: 3/20
- E-CBZ in embryo/larva extracts after exposure to CBZ (zebrafish embryos/larvae; 31.25 µM CBZ, 24 and 120 hpf): could not be detected
- Internal concentration, fold lower at 120 hpf than at 24 hpf (zebrafish embryos/larvae; 85 µM): 3.4 fold
- Uptake by embryos and larvae (quantified in homogenate extracts) (zebrafish embryos/larvae; 24 and 120 hpf): taken up

SMILES: O=C1NC(=O)C(c2ccccc2)(c2ccccc2)N1 [PHE, phenytoin]
- Teratogenicity in zebrafish (conclusion from morphological and analytical assessment) [1]: teratogens
- Deviation Tail Curve [1, 4]: 1/20
- Malformation Head Deviation Eye [1, 4]: 2/20
- Deviation Pigmentation [1, 2]: 2/20
- Deviation Tail Elbow [1, 2]: 1/20
- Deviation Tail Tissue Deviation [1, 2]: 2/20
- Deviation Tail Elbow [1, 3]: 2/20
- Deviation Tail Tissue Deviation [1, 3]: 1/20
- No Hatching [1, 3]: 1/20
- Oedema Head [1, 3]: 1/20
- Oedema Pericardium [1, 3]: 1/20
- Oedema Yolk [1, 3]: 1/20
- Uptake by embryos and larvae (quantified in homogenate extracts) (zebrafish embryos/larvae; 24 and 120 hpf): taken up
- HPPH in embryo/larva extracts after exposure to PHE (zebrafish embryos/larvae; 24 hpf and 120 hpf, any samples): could not detect
- Internal concentration, times higher at 24 hpf than at 120 hpf (zebrafish embryos/larvae; all concentrations): ~5 times

Reference: PMC8657848, “Developmental Toxicity and Biotransformation of Two Anti-Epileptics in Zebrafish Embryos and Early Larvae” (International Journal of Molecular Sciences, 2021)
